10 compounds from patent US20230265116A1, “DEGRADATION OF (EGFR) BY CONJUGATION OF EGFR INHIBITORS WITH E3 LIGASE LIGAND AND METHODS OF USE” (BEIGENE, LTD., priority 2020, published 2023) can be followed below.

Molecules are shown by their SMILES. Read-outs that look alike come from different tables or passages of the source.

For assay [1], the system named is EGFR Del19/T790M/C797S (BaF3-DTC cells). Kind of assay: EGFR degradation HTRF assay, BaF3-DTC cells. The format is cell-based. As to conditions: for DTC Dmax (%): maximum percentage of degradation. In short, it runs like this:
(§1)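 Cells treated 16 h at 37 °C, 5% CO2 in medium with 0.2% DMSO; top final concentration 10 uM, 5-fold dilution, 8 doses. Lysates read by HTRF (665/620 nm); degradation % versus DMSO high control, DC50 from four-parameter fit, Dmax as maximal degradation.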
In general terms: TR-FRET usually uses a lanthanide donor and a delayed reading to cut background.

Assay [2] concerns the target T1, EGFR L858R/T790M/C797S (BaF3-LTC cells) (Homo sapiens, UniProt P00533, C797S/L858R/T790M).
T1 construct: expressed in transfected cells; host or cells: BaF3
In words: EGFR degradation HTRF assay, BaF3-LTC cells. As to conditions: BaF3-LTC, 16h treatment; for Dmax: maximum percentage of degradation, read-out: LTC Dmax (%); for DC50: read-out: LTC DC50. The format is cell-based. In short, it runs like this:
as §1

[3] abbreviates: 16h treatment, read-out: DTC DC50.

As a reminder, the DC50 is the midpoint of the concentration-degradation curve. For orientation: Dmax means the largest share of the target that was removed.

T1 sequence (P00533 25-1210 T790M/C797S/L858R): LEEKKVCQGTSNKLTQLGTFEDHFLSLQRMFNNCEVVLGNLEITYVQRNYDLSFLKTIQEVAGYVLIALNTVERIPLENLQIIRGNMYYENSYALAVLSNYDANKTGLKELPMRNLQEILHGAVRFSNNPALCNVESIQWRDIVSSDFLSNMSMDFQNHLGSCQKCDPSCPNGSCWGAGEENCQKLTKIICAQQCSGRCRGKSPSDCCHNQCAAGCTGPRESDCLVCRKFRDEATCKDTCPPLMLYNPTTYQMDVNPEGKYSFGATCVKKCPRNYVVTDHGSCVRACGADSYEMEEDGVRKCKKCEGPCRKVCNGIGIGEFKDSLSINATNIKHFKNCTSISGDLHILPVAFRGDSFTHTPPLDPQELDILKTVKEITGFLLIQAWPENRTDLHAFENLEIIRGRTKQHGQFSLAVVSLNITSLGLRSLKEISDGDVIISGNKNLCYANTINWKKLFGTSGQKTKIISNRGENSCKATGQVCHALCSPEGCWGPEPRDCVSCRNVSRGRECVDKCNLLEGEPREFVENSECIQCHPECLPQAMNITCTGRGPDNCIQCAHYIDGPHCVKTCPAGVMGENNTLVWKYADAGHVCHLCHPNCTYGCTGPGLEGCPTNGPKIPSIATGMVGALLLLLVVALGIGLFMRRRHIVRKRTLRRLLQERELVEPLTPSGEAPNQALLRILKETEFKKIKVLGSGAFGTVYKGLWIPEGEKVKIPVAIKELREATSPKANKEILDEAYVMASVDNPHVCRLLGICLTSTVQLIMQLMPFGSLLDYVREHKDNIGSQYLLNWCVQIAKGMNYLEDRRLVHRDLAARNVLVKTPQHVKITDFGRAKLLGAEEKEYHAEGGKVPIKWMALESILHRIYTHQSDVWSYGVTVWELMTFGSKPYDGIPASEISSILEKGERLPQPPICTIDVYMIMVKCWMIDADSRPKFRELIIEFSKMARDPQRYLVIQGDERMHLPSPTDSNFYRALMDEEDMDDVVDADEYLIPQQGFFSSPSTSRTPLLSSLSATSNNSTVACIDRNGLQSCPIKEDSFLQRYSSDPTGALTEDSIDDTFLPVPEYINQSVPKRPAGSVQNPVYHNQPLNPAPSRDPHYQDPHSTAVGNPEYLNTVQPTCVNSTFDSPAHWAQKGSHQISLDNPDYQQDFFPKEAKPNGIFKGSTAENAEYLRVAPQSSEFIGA

As for `COc1cc(N2CCC(N3CCN(CCc4cc(F)c(C5CCC(=O)NC5=O)c(F)c4)CC3)CC2)c(C(C)O)cc1Nc1ncc(Br)c(Nc2ccc3nccnc3c2P(C)(C)=O)n1` (stereo not shown) [Example 430, 3-(4-(2-(4-(1-(4-((5-bromo-4-((5-(dimethylphosphoryl)quinoxalin-6-yl)amino)pyrimidin-2-yl)amino)-2-(1-hydroxyethyl)-5-methoxyphenyl)piperidin-4-yl)piperazin-1-yl)ethyl)-2,6-difluorophenyl)piperidine-2,6-dione], the “DTC Dmax (%)” value in assay [1] (16h treatment) is 97.63%. Besides, the half-maximal degradation concentration (DC50) in assay [1] (setting [3]) came to 2.64 nM; in assay [2], 4.5 nM. In addition, the Dmax in assay [2] came to 94.5%.
With `CCc1cc(Nc2ncc(Br)c(Nc3ccc4c(=O)n(C)ncc4c3P(C)(C)=O)n2)c(OC)cc1N1CCC(N2CCN(CCc3cc(F)c(C4CCC(=O)NC4=O)c(F)c3)CC2)CC1` (stereo not shown) [Example 431, 3-(4-(2-(4-(1-(4-((5-bromo-4-((5-(dimethylphosphoryl)-2-methyl-1-oxo-1,2-dihydrophthalazin-6-yl)amino)pyrimidin-2-yl)amino)-2-ethyl-5-methoxyphenyl)piperidin-4-yl)piperazin-1-yl)ethyl)-2,6-difluorophenyl)piperidine-2,6-dione], in assay [1] (16h treatment), the “DTC Dmax (%)” value worked out at 97.96%. Also, in assay [1] (setting [3]), the DC50 was 2.7 nM. For the same compound, in assay [2], the Dmax worked out at 91% and the 50% degradation concentration (DC50) worked out at 12.4 nM.
As for `CCc1cc(Nc2ncc(Br)c(Nc3ccc4nc(C)ccc4c3P(C)(C)=O)n2)c(OC)cc1N1CCC(N2CCN(C(=O)CNc3cc(F)c(C4CCC(=O)NC4=O)c(F)c3)CC2)CC1` (stereo not shown) [Example 432, 3-(4-((2-(4-(1-(4-((5-bromo-4-((5-(dimethylphosphoryl)-2-methylquinolin-6-yl)amino)pyrimidin-2-yl)amino)-2-ethyl-5-methoxyphenyl)piperidin-4-yl)piperazin-1-yl)-2-oxoethyl)amino)-2,6-difluorophenyl)piperidine-2,6-dione], the “DTC Dmax (%)” value in assay [1] (16h treatment) is listed as 94.91%. Also, the DC50 in assay [1] (setting [3]) amounted to 1.19 nM. In assay [2], the Dmax was 93% and the half-maximal degradation concentration (DC50) stood at 4.24 nM.
As for `CCc1cc(Nc2ncc(Br)c(Nc3ccc4nc(C)ccc4c3P(C)(C)=O)n2)c(OC)cc1N1CCC(N2CCN(CCN(C)c3cc(F)c(C4CCC(=O)NC4=O)c(F)c3)CC2)CC1` (stereo not shown) [Example 433, 3-(4-((2-(4-(1-(4-((5-bromo-4-((5-(dimethylphosphoryl)-2-methylquinolin-6-yl)amino)pyrimidin-2-yl)amino)-2-ethyl-5-methoxyphenyl)piperidin-4-yl)piperazin-1-yl)ethyl)(methyl)amino)-2,6-difluorophenyl)piperidine-2,6-dione], the “DTC Dmax (%)” value in assay [1] (16h treatment) amounted to 93.56%. In addition, in assay [1] (setting [3]), the DC50 turned out to be 4.29 nM. In assay [2], the Dmax came out at 90.8% and the DC50 was 9.35 nM.
In the case of `CCc1cc(Nc2ncc(Br)c(Nc3ccc4nc(C(F)(F)F)ccc4c3P(C)(C)=O)n2)c(OC)cc1N1CCC(N2CCN(C(=O)C3CN(c4ccc5c(c4)CN(C4CCC(=O)NC4=O)C5=O)C3)CC2)CC1` (stereo not shown) [Example 434, 3-(5-(3-(4-(1-(4-((5-bromo-4-((5-(dimethylphosphoryl)-2-(trifluoromethyl)quinolin-6-yl)amino)pyrimidin-2-yl)amino)-2-ethyl-5-methoxyphenyl)piperidin-4-yl)piperazine-1-carbonyl)azetidin-1-yl)-1-oxoisoindolin-2-yl)piperidine-2,6-dione], the “DTC Dmax (%)” value in assay [1] (16h treatment) was 85.05%. Also, the DC50 in assay [1] (setting [3]) stood at 4.43 nM. In assay [2], the Dmax is 88.2% and the half-maximal degradation concentration (DC50) stood at 9.32 nM.
Consider `CCc1cc(Nc2ncc(Br)c(Nc3ccc4nc(C(F)(F)F)ccc4c3P(C)(C)=O)n2)c(OC)cc1N1CCC(N2CCN(CCc3cc(F)c(C4CCC(=O)NC4=O)c(F)c3)CC2)CC1` (stereo not shown) [Example 435, 3-(4-(2-(4-(1-(4-((5-bromo-4-((5-(dimethylphosphoryl)-2-(trifluoromethyl)quinolin-6-yl)amino)pyrimidin-2-yl)amino)-2-ethyl-5-methoxyphenyl)piperidin-4-yl)piperazin-1-yl)ethyl)-2,6-difluorophenyl)piperidine-2,6-dione], for which the “DTC Dmax (%)” value in assay [1] (16h treatment) came out at 92.59%. The DC50 in assay [1] (setting [3]) was 7.48 nM. For the same compound, in assay [2], the Dmax worked out at 89.9% and the half-maximal degradation concentration (DC50) was 23.9 nM.
With `CCc1cc(Nc2ncc(Br)c(Nc3ccc4nc(C)ccc4c3P(C)(C)=O)n2)c(OC)cc1N1CCC(N2CCN(C(=O)C3CCN(c4ccc5c(c4)C(C)(C)C(=O)N5C4CCC(=O)NC4=O)CC3)CC2)CC1` (stereo not shown) [Example 436, 3-(5-(4-(4-(1-(4-((5-bromo-4-((5-(dimethylphosphoryl)-2-methylquinolin-6-yl)amino)pyrimidin-2-yl)amino)-2-ethyl-5-methoxyphenyl)piperidin-4-yl)piperazine-1-carbonyl)piperidin-1-yl)-3,3-dimethyl-2-oxoindolin-1-yl)piperidine-2,6-dione], the “DTC Dmax (%)” value in assay [1] (16h treatment) was determined as 89.14%. The DC50 in assay [1] (read-out: DTC DC50, 16h treatment) was determined as 2.38 nM. In addition, in assay [2], the Dmax is 92.5% and the 50% degradation concentration (DC50) stood at 3.2 nM.
Consider `CCc1cc(Nc2ncc(Br)c(Nc3ccc4nc(C(F)(F)F)ccc4c3P(C)(C)=O)n2)c(OC)cc1N1CCC(N2CCN(CCC3CCN(c4cc(F)c(C5CCC(=O)NC5=O)c(F)c4)CC3)CC2)CC1` (stereo not shown) [Example 437, 3-(4-(4-(2-(4-(1-(4-((5-bromo-4-((5-(dimethylphosphoryl)-2-(trifluoromethyl)quinolin-6-yl)amino)pyrimidin-2-yl)amino)-2-ethyl-5-methoxyphenyl)piperidin-4-yl)piperazin-1-yl)ethyl)piperidin-1-yl)-2,6-difluorophenyl)piperdine-2,6-dione], for which the “DTC Dmax (%)” value in assay [1] (16h treatment) was determined as 83.88%. In addition, the DC50 in assay [1] (setting [3]) amounted to 14.9 nM. Besides, in assay [2], the Dmax came to 91.2% and the DC50 was 28 nM.
On to `CCc1cc(Nc2ncc(Br)c(Nc3ccc4ncn(C)c(=O)c4c3P(C)(C)=O)n2)c(OC)cc1N1CCC(N2CCN(CCc3cccc4c3n(C)c(=O)n4C3CCC(=O)NC3=O)CC2)CC1` (stereo not shown) [Example 698, 3-(4-(2-(4-(1-(4-((5-bromo-4-((5-(dimethylphosphoryl)-3-methyl-4-oxo-3,4-dihydroquinazolin-6-yl)amino)pyrimidin-2-yl)amino)-2-ethyl-5-methoxyphenyl)piperidin-4-yl)piperazin-1-yl)ethyl)-3-methyl-2-oxo-2,3-dihydro-1H-benzo[d]imidazol-1-yl)piperidine-2,6-dione], for which the “DTC Dmax (%)” value in assay [1] (16h treatment) was found to be 94.26%. Further, in assay [1] (setting [3]), the DC50 was found to be 0.601 nM. For the same compound, in assay [2], the Dmax worked out at 93.6% and the DC50 amounted to 4.28 nM.
As to `CCc1cc(Nc2ncc(Br)c(Nc3ccc4nc(C)ccc4c3P(C)(C)=O)n2)c(OC)cc1N1CCC(N2CCN(C(=O)C34CCC(Nc5cc(F)c(C6CCC(=O)NC6=O)c(F)c5)(CC3)C4)CC2)CC1` (stereo not shown) [Example 699, 3-(4-((4-(4-(1-(4-((5-bromo-4-((5-(dimethylphosphoryl)-2-methylquinolin-6-yl)amino)pyrimidin-2-yl)amino)-2-ethyl-5-methoxyphenyl)piperidin-4-yl)piperazine-1-carbonyl)bicyclo[2.2.1]heptan-1-yl)amino)-2,6-difluorophenyl)piperidine-2,6-dione], the “DTC Dmax (%)” value in assay [1] (16h treatment) was 85.08%. Moreover, the DC50 in assay [1] (setting [3]) came out at 3.04 nM; in assay [2], 6.06 nM. Besides, the greatest degradation seen (Dmax) in assay [2] is 89.2%.
